{"source": "ChEMBL document CHEMBL4376823", "about": "“The discovery of a potent and selective third-generation EGFR kinase inhibitor as a therapy for EGFR L858R/T790M double mutant non-small cell lung cancer” (Eur J Med Chem, 2019)", "key": {"[1]": {"system": "NCI-H1975", "experiment": "Induction of apoptosis in human NCI-H1975 cells assessed as viable cells at 25 nM incubated for 48 hrs by propidium iodide and annexin-V FITC staining based flow cytometry (reference value: 99.05 %)", "type": "functional", "conditions": "NCI-H1975, 48 h, read-out: Activity"}, "[2]": {"experiment": "AUC (0 to infinity) in ICR mouse at 10 mg/kg, po", "type": "ADME, organism-based", "parameters": "dose 10 mg/kg, route oral, time infinity", "conditions": "in vivo"}, "[3]": {"system": "NCI-H1975", "experiment": "Induction of apoptosis in human NCI-H1975 cells assessed as early apoptotic cells at 5 nM incubated for 24 hrs by propidium iodide and annexin-V FITC staining based flow cytometry (reference value: 0.94 %)", "type": "functional"}, "[4]": {"system": "NCI-H1975", "experiment": "Induction of apoptosis in human NCI-H1975 cells assessed as early apoptotic cells at 5 nM incubated for 48 hrs by propidium iodide and annexin-V FITC staining based flow cytometry (reference value: 0.95 %)", "type": "functional"}, "[5]": {"system": "NCI-H1975", "experiment": "Induction of apoptosis in human NCI-H1975 cells assessed as early apoptotic cells at 25 nM incubated for 48 hrs by propidium iodide and annexin-V FITC staining based flow cytometry (reference value: 0.95 %)", "type": "functional"}, "[6]": {"system": "NCI-H1975", "experiment": "Induction of apoptosis in human NCI-H1975 cells assessed as late apoptotic cells at 5 nM incubated for 72 hrs by propidium iodide and annexin-V FITC staining based flow cytometry (reference value: 0.01 %)", "type": "functional"}, "[7]": {"system": "NCI-H1975", "experiment": "Induction of apoptosis in human NCI-H1975 cells assessed as necrotic cells at 25 nM incubated for 72 hrs by propidium iodide and annexin-V FITC staining based flow cytometry (reference value: 0.01 %)", "type": "functional"}, "[8]": {"system": "NCI-H1975", "experiment": "Induction of apoptosis in human NCI-H1975 cells assessed as late apoptotic cells at 50 nM incubated for 24 hrs by propidium iodide and annexin-V FITC staining based flow cytometry (reference value: 0.23 %)", "type": "functional"}, "[9]": {"experiment": "Cytotoxicity against human HEK293A cells expressing EGFR assessed as reduction in cell viability incubated for 72 hrs by MTT assay", "type": "cell-based, HEK293-A", "conditions": "hek293-a"}, "[10]": {"experiment": "MRT (0 to t) in ICR mouse at 10 mg/kg, po", "type": "ADME, organism-based", "conditions": "in vivo"}, "[11]": {"system": "NCI-H1975", "experiment": "Induction of apoptosis in human NCI-H1975 cells assessed as viable cells at 5 nM incubated for 72 hrs by propidium iodide and annexin-V FITC staining based flow cytometry (reference value: 97.55 %)", "type": "functional", "conditions": "NCI-H1975, 72 h, read-out: Activity"}, "[12]": {"system": "NCI-H1975", "experiment": "Induction of apoptosis in human NCI-H1975 cells assessed as necrotic cells at 25 nM incubated for 48 hrs by propidium iodide and annexin-V FITC staining based flow cytometry (reference value: 0.01 %)", "type": "functional"}, "[13]": {"experiment": "Selectivity index, ratio of IC50 for human BJ cells to IC50 for human NCI-H1975 cells expressing EGFR T790M/L858R mutant", "type": "toxicity"}, "[14]": {"experiment": "Oral bioavailability in ICR mouse at 10 mg/kg", "type": "ADME, organism-based", "conditions": "in vivo"}, "[15]": {"system": "NCI-H1975", "experiment": "Induction of apoptosis in human NCI-H1975 cells assessed as late apoptotic cells at 25 nM incubated for 24 hrs by propidium iodide and annexin-V FITC staining based flow cytometry (reference value: 0.23 %)", "type": "functional"}, "[16]": {"system": "NCI-H1975", "experiment": "Antiproliferative activity against human NCI-H1975 cells expressing EGFR T790M/L858R mutant assessed as reduction in cell viability incubated for 72 hrs by MTT assay", "type": "functional, cell-based", "conditions": "nci-h1975"}, "[17]": {"system": "NCI-H1975", "experiment": "Induction of apoptosis in human NCI-H1975 cells assessed as viable cells at 50 nM incubated for 48 hrs by propidium iodide and annexin-V FITC staining based flow cytometry (reference value: 99.05 %)", "type": "functional", "conditions": "NCI-H1975, 48 h, read-out: Activity"}, "[18]": {"system": "NCI-H1975", "experiment": "Induction of apoptosis in human NCI-H1975 cells assessed as viable cells at 25 nM incubated for 72 hrs by propidium iodide and annexin-V FITC staining based flow cytometry (reference value: 97.55 %)", "type": "functional", "conditions": "NCI-H1975, 72 h, read-out: Activity"}, "[19]": {"system": "NCI-H1975", "experiment": "Induction of apoptosis in human NCI-H1975 cells assessed as necrotic cells at 25 nM incubated for 24 hrs by propidium iodide and annexin-V FITC staining based flow cytometry (reference value: 0.01 %)", "type": "functional"}, "[20]": {"experiment": "Selectivity index, ratio of IC50 for human HLF cells to IC50 for human NCI-H1975 cells expressing EGFR T790M/L858R mutant"}, "[21]": {"experiment": "AUC (0 to infinity) in ICR mouse at 5 mg/kg, iv", "type": "ADME, organism-based", "parameters": "dose 5 mg/kg, time infinity, route intravenous", "conditions": "in vivo"}, "[22]": {"experiment": "Clearance in ICR mouse at 5 mg/kg, iv", "type": "ADME, organism-based", "conditions": "in vivo"}, "[23]": {"experiment": "MRT (0 to infinity) in ICR mouse at 5 mg/kg, iv", "type": "ADME, organism-based", "conditions": "in vivo"}, "[24]": {"experiment": "Half life in ICR mouse at 5 mg/kg, iv", "type": "ADME, organism-based", "conditions": "in vivo"}, "[25]": {"experiment": "Tmax in ICR mouse at 5 mg/kg, iv", "type": "ADME, organism-based", "conditions": "in vivo"}, "[26]": {"biological_target": "Epidermal growth factor receptor (Homo sapiens, UniProt P00533, L858R/T790M)", "sequence (P00533 whole entry T790M/L858R, looked up)": "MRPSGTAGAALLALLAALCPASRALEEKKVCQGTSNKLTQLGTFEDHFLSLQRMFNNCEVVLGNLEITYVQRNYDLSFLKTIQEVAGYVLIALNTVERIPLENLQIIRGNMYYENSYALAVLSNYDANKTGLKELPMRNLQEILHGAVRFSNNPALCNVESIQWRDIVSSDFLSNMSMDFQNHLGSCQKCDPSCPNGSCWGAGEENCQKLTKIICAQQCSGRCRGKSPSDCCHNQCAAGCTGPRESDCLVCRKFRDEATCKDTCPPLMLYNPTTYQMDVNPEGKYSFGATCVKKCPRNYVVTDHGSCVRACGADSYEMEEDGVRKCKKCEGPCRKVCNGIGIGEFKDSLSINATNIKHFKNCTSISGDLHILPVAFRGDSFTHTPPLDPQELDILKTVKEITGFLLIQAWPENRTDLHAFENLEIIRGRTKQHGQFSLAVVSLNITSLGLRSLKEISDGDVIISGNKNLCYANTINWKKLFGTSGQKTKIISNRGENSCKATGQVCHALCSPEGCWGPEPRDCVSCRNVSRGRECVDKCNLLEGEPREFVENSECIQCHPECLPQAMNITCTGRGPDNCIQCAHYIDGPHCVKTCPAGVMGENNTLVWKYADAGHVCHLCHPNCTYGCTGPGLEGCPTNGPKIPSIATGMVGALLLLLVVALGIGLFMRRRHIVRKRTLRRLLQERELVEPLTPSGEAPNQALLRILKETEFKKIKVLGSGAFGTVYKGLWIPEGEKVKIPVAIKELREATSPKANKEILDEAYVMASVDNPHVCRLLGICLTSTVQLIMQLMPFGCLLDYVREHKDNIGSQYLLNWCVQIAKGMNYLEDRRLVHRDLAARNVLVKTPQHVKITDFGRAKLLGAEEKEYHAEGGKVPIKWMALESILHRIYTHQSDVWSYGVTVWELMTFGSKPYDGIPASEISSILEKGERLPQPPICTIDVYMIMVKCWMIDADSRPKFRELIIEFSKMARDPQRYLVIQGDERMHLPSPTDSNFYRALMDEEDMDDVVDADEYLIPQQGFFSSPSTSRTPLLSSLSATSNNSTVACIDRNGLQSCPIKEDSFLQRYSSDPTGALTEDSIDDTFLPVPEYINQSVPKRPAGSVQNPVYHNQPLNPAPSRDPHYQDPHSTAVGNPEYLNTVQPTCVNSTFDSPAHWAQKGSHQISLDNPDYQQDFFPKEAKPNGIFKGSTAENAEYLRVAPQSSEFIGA", "experiment": "Inhibition of EGFR T790M/L858R mutant in human NCI-H1975 cells assessed as reduction in EGFR Y1068 phosphorylation incubated for 4 hrs by Western blot analysis", "type": "cell-based"}, "[27]": {"system": "NCI-H1975", "experiment": "Induction of apoptosis in human NCI-H1975 cells assessed as necrotic cells at 5 nM incubated for 24 hrs by propidium iodide and annexin-V FITC staining based flow cytometry (reference value: 0.01 %)", "type": "functional"}, "[28]": {"experiment": "Cmax in ICR mouse at 5 mg/kg, iv", "type": "ADME, organism-based", "parameters": "dose 5 mg/kg, route intravenous", "conditions": "in vivo"}, "[29]": {"biological_target": "T1, Epidermal growth factor receptor (Homo sapiens, UniProt P00533)", "T1 sequence (P00533 whole entry)": "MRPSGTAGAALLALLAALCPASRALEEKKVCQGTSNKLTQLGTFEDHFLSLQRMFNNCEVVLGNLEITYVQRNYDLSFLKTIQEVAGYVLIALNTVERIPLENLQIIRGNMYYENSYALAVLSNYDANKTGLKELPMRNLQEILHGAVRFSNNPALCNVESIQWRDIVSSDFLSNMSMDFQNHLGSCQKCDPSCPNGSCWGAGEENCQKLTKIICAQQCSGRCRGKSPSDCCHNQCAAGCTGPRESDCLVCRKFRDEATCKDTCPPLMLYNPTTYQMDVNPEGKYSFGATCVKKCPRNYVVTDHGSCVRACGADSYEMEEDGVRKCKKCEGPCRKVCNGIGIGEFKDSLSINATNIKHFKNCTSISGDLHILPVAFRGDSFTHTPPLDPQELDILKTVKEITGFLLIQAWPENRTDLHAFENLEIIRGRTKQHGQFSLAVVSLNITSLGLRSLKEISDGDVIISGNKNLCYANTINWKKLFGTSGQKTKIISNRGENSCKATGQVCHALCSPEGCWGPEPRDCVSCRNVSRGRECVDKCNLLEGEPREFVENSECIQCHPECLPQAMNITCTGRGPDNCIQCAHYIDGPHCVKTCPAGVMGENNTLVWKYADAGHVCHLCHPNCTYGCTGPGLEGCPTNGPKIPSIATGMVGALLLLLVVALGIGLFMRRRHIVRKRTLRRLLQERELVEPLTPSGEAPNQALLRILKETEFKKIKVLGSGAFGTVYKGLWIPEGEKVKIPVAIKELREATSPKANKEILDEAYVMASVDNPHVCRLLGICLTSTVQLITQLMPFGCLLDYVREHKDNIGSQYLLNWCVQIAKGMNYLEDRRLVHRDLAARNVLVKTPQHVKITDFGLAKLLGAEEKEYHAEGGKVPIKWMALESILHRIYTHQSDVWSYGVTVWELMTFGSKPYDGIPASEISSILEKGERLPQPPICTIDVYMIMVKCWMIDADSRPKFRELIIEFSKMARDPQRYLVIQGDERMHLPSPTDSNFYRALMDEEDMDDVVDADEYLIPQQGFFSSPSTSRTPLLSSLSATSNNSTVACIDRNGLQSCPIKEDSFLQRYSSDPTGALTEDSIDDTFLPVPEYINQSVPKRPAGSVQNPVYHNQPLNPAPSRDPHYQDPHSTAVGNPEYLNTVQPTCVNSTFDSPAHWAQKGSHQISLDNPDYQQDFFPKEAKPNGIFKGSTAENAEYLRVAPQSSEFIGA", "experiment": "Inhibition of EGFR in human NCI-H292 cells assessed as reduction in EGFR Y1068 phosphorylation at incubated for 4 hrs by Western blot analysis", "type": "cell-based"}, "[30]": {"system": "NCI-H1975", "experiment": "Induction of apoptosis in human NCI-H1975 cells assessed as early apoptotic cells at 50 nM incubated for 48 hrs by propidium iodide and annexin-V FITC staining based flow cytometry (reference value: 0.95 %)", "type": "functional"}, "[31]": {"system": "NCI-H1975", "experiment": "Induction of apoptosis in human NCI-H1975 cells assessed as late apoptotic cells at 25 nM incubated for 48 hrs by propidium iodide and annexin-V FITC staining based flow cytometry (reference value: 0.23 %)", "type": "functional"}, "[32]": {"system": "NCI-H1975", "experiment": "Induction of apoptosis in human NCI-H1975 cells assessed as viable cells at 5 nM incubated for 24 hrs by propidium iodide and annexin-V FITC staining based flow cytometry (reference value: 98.82 %)", "type": "functional", "conditions": "NCI-H1975, 24 h, read-out: Activity"}, "[33]": {"experiment": "MRT (0 to infinity) in ICR mouse at 10 mg/kg, po", "type": "ADME, organism-based", "conditions": "in vivo"}, "[34]": {"system": "NCI-H1975", "experiment": "Inhibition of cell migration in human NCI-H1975 cells at 5 nM incubated for 24 hrs by phase contrast microscopy relative to control", "type": "functional", "conditions": "NCI-H1975, 24 h"}, "[35]": {"biological_target": "T1, Epidermal growth factor receptor", "experiment": "Inhibition of recombinant human GST-tagged EGFR (668 to 1210 residues) expressed in baculovirus expression system using Tyr 04 as substrate incubated for 1 hr by Z'-LYTE assay"}, "[36]": {"system": "NCI-H1975", "experiment": "Induction of apoptosis in human NCI-H1975 cells assessed as early apoptotic cells at 50 nM incubated for 72 hrs by propidium iodide and annexin-V FITC staining based flow cytometry (reference value: 2.43 %)", "type": "functional"}, "[37]": {"system": "NCI-H1975", "experiment": "Induction of apoptosis in human NCI-H1975 cells assessed as viable cells at 5 nM incubated for 48 hrs by propidium iodide and annexin-V FITC staining based flow cytometry (reference value: 99.05 %)", "type": "functional", "conditions": "NCI-H1975, 48 h, read-out: Activity"}}}
{"smiles": "C=CC(=O)Nc1cc(Nc2nccc(-c3cn(C)c4ccccc34)n2)c(OC)cc1[S+]([O-])CCN(C)C", "note": "(single isomer, unassigned; (-))", "values": [{"measurement": "viability at 0.025 µM", "setting": "[1]", "value": 44.7, "unit": "%"}, {"measurement": "AUC(0-inf)", "setting": "[2]", "value": 2000, "unit": "ng·h/mL"}, {"measurement": "Activity", "setting": "[3]", "value": 14.89, "unit": "%"}, {"measurement": "Activity", "setting": "[4]", "value": 22.89, "unit": "%"}, {"measurement": "Activity", "setting": "[5]", "value": 51.86, "unit": "%"}, {"measurement": "Activity", "setting": "[6]", "value": 18.71, "unit": "%"}, {"measurement": "Activity", "setting": "[7]", "value": 1.85, "unit": "%"}, {"measurement": "Activity", "setting": "[8]", "value": 2.3, "unit": "%"}, {"measurement": "IC50", "setting": "[9]", "value": 1920, "unit": "nM"}, {"measurement": "MRT last", "setting": "[10]", "value": 2.32, "unit": "h"}, {"measurement": "viability at 0.005 µM", "setting": "[11]", "value": 57.5, "unit": "%"}, {"measurement": "Activity", "setting": "[12]", "value": 0.69, "unit": "%"}, {"measurement": "Ratio IC50", "setting": "[13]", "value": "> 1000"}, {"measurement": "bioavailability", "setting": "[14]", "value": 73.7, "unit": "%"}, {"measurement": "Activity", "setting": "[15]", "value": 0.86, "unit": "%"}, {"measurement": "IC50", "setting": "[16]", "value": 10, "unit": "nM"}, {"measurement": "viability at 0.05 µM", "setting": "[17]", "value": 13.7, "unit": "%"}, {"measurement": "viability at 0.025 µM", "setting": "[18]", "value": 35.2, "unit": "%"}, {"measurement": "Activity", "setting": "[19]", "value": 0.14, "unit": "%"}, {"measurement": "Ratio IC50", "setting": "[20]", "value": 910}, {"measurement": "AUC(0-inf)", "setting": "[21]", "value": 1300, "unit": "ng·h/mL"}, {"measurement": "clearance", "setting": "[22]", "value": 63.9, "unit": "mL/min/kg"}, {"measurement": "MRT inf", "setting": "[23]", "value": 1.21, "unit": "h"}, {"measurement": "half-life", "setting": "[24]", "value": 1.12, "unit": "h"}, {"measurement": "Tmax", "setting": "[25]", "value": 4.8, "unit": "min"}, {"measurement": "EC50", "setting": "[26]", "value": 7.06, "unit": "nM"}, {"measurement": "Activity", "setting": "[27]", "value": 0.32, "unit": "%"}, {"measurement": "Cmax", "setting": "[28]", "value": 1610, "unit": "ng/mL"}, {"measurement": "EC50", "setting": "[29]", "value": 90.2, "unit": "nM"}, {"measurement": "Activity", "setting": "[30]", "value": 56.02, "unit": "%"}, {"measurement": "Activity", "setting": "[31]", "value": 2.73, "unit": "%"}, {"measurement": "viability at 0.005 µM", "setting": "[32]", "value": 83.6, "unit": "%"}, {"measurement": "MRT inf", "setting": "[33]", "value": 2.68, "unit": "h"}, {"measurement": "inhibition at 0.005 µM", "setting": "[34]", "value": 45.1, "unit": "%"}, {"measurement": "IC50", "setting": "[35]", "value": 229, "unit": "nM"}, {"measurement": "Activity", "setting": "[36]", "value": 58.1, "unit": "%"}, {"measurement": "viability at 0.005 µM", "setting": "[37]", "value": 77, "unit": "%"}]}
